Source: patent US20080262080A1, “Allergy Suppressive Agent” (KYUSHU UNIVERSITY, NATIONAL UNIVERSITY CORPORATION, priority 2004, published 2008)

Columns and labels:
[1] = system: STAT6; assay: Detection of phosphorylated STAT6 in IL-4-treated DND39 cells; assay type: cell-based, human; conditions: IL-4 (100 U/ml), chrysin at various concentrations, 30 min
Protocol: DND39 cells were treated with IL-4 (100 U/ml) and chrysin at various concentrations and then lysed. Each cell lysate was subjected to immunoprecipitation using anti-STAT6 antibody. The immunoprecipitate was subjected to 8% SDS-PAGE and transferred onto a nitrocellulose membrane and phosphorylated STAT6 was detected. The density of DND39 cells was adjusted to 2×10^6 cells/mL and IL-4 (100 U/mL) and chrysin at each concentration were added thereto. Then, the cells were lysed by treating for 30 min. The cell lysate was subjected to immunoprecipitation using anti-STAT6 antibody. The immunoprecipitate was subjected to 8% SDS-PAGE and blotted onto a nitrocellulose membrane. Then phosphorylated STAT6 was detected using anti-tyrosine phosphorylation antibody (PY20).

[2] = system: blood antibody level (IgM, IgG, IgA, IgE); assay: Blood antibody level of mice antigen-sensitized with ovalbumin (OVA) after chrysin intake (ELISA); assay type: in vivo, mouse
Protocol: Male BALB/c mice aged 8 weeks were divided into an AIN-93M-fed group (a control group) and a chrysin-comprising AIN-93M-fed group. After feeding with the individual feeds for 3 weeks, both groups were fed with the AIN-93M feed for 2 weeks. Each feed was given at a ratio of 5 g/day/animal while the animals were allowed to take water ad libitum. OVA-sensitization was conducted by injecting 100 μg of OVA/aluminum hydroxide gel into the peritoneal cavity of each mouse 1 and 2 weeks after the initiation of the feed, i.e., twice in total. On day 35, blood samples were collected and the total IgM, IgG and IgE levels in the serum were measured by ELISA. Reagents employed in ELISA for quantifying the antibody were as follows. In blocking, use was made of PBS comprising 1% of bovine serum albumin (Roche) (BSA-PBS). As solid phase antibodies, use was made of F(ab′)2 goat anti-mouse IgG antibody (Zymed Laboratories, Inc.), F(ab′)2 rabbit anti-mouse IgM antibody (Zymed Laboratories, Inc.) and rabbit anti-mouse IgA (Zymed Laboratories, Inc.). As secondary antibodies, use was made of HRP-labeled F(ab′)2 goat anti-mouse IgG(H(L) antibody (Zymed Laboratories, Inc.), HRP-labeled rabbit anti-mouse IgM antibody (Zymed Laboratories, Inc.) and HRP-labeled goat anti-mouse IgA antibody (Zymed Laboratories, Inc.). 2,2′-Anizo-bis(3-ethylbenzothiazoline-6-sulfonic acid) diammonium salt (ABTS) employed as a color development substrate was purchased from Wako Pure Chemical Industries, while oxalic acid was purchased from Nacalai tesque (Kyoto, Japan). A solid phase antibody solution (diluted 1000-fold with a 50 mM carbonate buffer) was pipetted into an immunoplate at a ratio of 100 μL/well and allowed to stand overnight at 4° C. After washing thrice with PBS comprising 0.1% of polyoxyethylene sorbitan monolaurate (Nacalai tesque) (TPBS), 300 μL/well of BSA-PBS was pipetted and incubation was conducted for 2 hours at 37° C. After washing thrice with TPBS, a sample and a standard solution, which were optionally diluted with BSA-PBS, were added at a ratio of 50 μL/well and allowed to stand overnight at 4° C. After washing thrice with TPBS, 100 μL/well of a secondary antibody solution (diluted 2000-fold with BSA-PBS) was pipetted and incubation was conducted for 1 hour at 37° C. After washing thrice with TPBS, 100 μL/well of a color development substrate solution was pipetted and color development was carried out. Then, 100 μL/well of oxalic acid was pipetted to cease the reaction and the absorbance was measured at 415 to 490 nm. As the color development substrate solution, a mixture of a 0.006% H2O2— comprising 0.2 M citrate buffer (pH 4.0), deionized water and a 10.94 mM ABTS solution (10:9:1) was employed. In the case of IgE, the procedure indicated in the protocol attached to a mouse IgE assay kit (Morinaga Biochemistry Lab.) was followed. Absorbance was measured using Immuno Mini NJ-2300 (Nippon Intermed).

[3] = system: blood cytokine levels; assay: Blood cytokine levels of OVA-sensitized mice after chrysin intake (Mouse Cytokine Array); assay type: in vivo
From the text: Blood was collected as in Example 6 and 32 kinds of cytokines (6 Ckine, CTACK, Eotaxin, G-CSF, GM-CSF, IL-2, IL-3, Il-4, IL-5, Il-6, IL-9, IL-10, IL-12, IL-12p70, IL-13, IL-17, IFN-γ, KC, Leptin, MCP-1, MCP-5, MIP-1α, MIP-2, MIP-3β, RANTES, SCF, sTNFRI, TARC, TIMP-1, TNF-α, Tpo and VEGF) were detected using Ray Bio™ Mouse Cytokine Array (Ray Biotech, Inc.).

[4] = system: STAT6; assay: Chrysin intake test: STAT6 phosphorylation in spleen lymphocytes of orally dosed mice; assay type: in vivo, mouse
Protocol: Spleen lymphocytes collected from mice, to which chrysin had been orally administered continuously, were stimulated with LPS or LPS+IL-4 (500 U/ml) and phosphorylated STAT6 was detected by immunoprecipitation using anti-STAT6 antibody and immunoblotting. 200 μL portions of 0.4 mg/mL chrysin and 200 μL portions of 1% DMSO in 1% EtOH were administered respectively to groups (n=8) in accordance with the following administration schedule. To male C57BL/6N mice aged 5 weeks that had been preliminarily fed (MF feed) for 1 week, the samples were administered once every 2 days for 2 weeks (7 times in total; total dose: 0.56 mg (28 mg/kg) per animal). After sacrificing, spleen lymphocytes were collected from the spleen of each mouse, adjusted to a density of 2×10^7 cells/mL and stimulated with 25 μg/mL of lipopolysaccharide (LPS) or LPS+IL-4 (500 U/mL) for 30 min. Then, the cells were lysed and phosphorylated STAT6 was detected by immunoprecipitation with the use of anti-STAT6 antibody and immunoblotting to thereby examine the response to IL-4.

[5] = serum, day 35, BALB/c mice OVA-sensitized, chrysin-comprising feed 3 weeks

## O=c1cc(-c2ccccc2)oc2cc(O)cc(O)c12 [Chrysin, 5,7-dihydroxyflavone]
[1]
  phosphorylation of STAT6: suppressed
[2]; OVA-sensitized mice, in words
  blood IgE level compared with the control group: significantly lowered
[2]; OVA-sensitized mice, in words, vs control group
  effect of chrysin intake on blood IgM, IgG and IgA levels: no effect
[2]; [5]
  IgA: 0.6 ± 0.0 mg/mL
  IgG: 23.5 ± 3.0 mg/mL
  IgM: 5.4 ± 0.2 mg/mL
[3]; in words
  IL-4 level after taking chrysin: lower than the detection limit
  blood levels of G-CSF, GM-CSF, leptin and TNF-α: tendency toward increase
  cytokine levels of 26 of the 32 kinds of cytokines: no change
[3]; non-intake group = 1
  G-CSF blood level, relative value: 2.43
  GM-CSF blood level, relative value: 1.68
  IL-4 blood level, relative value: 0
  Leptin blood level, relative value: 1.25
  MCP-1 blood level, relative value: 0.49
  TNF-α blood level, relative value: 2.17
[4]; C57BL/6N mice, oral chrysin once every 2 days for 2 weeks, total 28 mg/kg, spleen lymphocytes, LPS+IL-4 (500 U/mL) 30 min, vs control system
  phosphorylation of STAT6 by the stimulus with LPS+IL-4: suppressed
[4]; male adults having an average body weight of 60 kg (28 mg/kg)
  oral dose at which chrysin is efficacious as an antiallergic agent: ≥ 1.68 g/day
